Reference: patent US6884809B2 (Cornell Research Foundation, Inc., priority 2001, dated 2005)

Columns and labels:
Na+/H+ exchanger (NHE) = assay: NHE activity: Na+-dependent pHi recovery after NH4Cl acid pulse in BCECF-loaded SKNMC-H3 cells; format: cell-based, human
[1] = tested on: guinea-pig heart synaptosomes; format: cell-based
SH-SY5Y-H3 cells [2] = format: cell-based, human
SH-SY5Y cells [3] = format: cell-based, human
SH-SY5Y-H3 cells [4] = assay: Cai measurements (Fura-2) in K+-depolarized H3R-transfected SH-SY5Y-H3 cells; format: cell-based, human
H3R = H3R (Homo sapiens, UniProt Q9Y5N1); details: read-out: EC50 to activate the H3R; cited from earlier work
Chain of H3R (Q9Y5N1 whole entry, species assumed): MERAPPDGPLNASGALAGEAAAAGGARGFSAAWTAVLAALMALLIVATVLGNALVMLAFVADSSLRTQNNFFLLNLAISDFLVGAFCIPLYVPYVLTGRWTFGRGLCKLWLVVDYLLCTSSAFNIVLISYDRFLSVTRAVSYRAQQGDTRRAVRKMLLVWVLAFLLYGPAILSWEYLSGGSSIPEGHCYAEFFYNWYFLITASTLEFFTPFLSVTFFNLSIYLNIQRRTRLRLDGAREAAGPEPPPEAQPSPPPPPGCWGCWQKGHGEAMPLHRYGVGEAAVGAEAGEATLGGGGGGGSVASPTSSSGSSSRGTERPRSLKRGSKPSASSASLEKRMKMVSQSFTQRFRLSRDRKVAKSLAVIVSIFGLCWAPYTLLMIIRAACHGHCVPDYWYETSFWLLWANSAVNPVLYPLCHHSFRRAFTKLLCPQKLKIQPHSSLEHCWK

SH-SY5Y cells [5] = format: cell-based, human; remark: listed apart in the source
[6] = thioperamide 300 nM plus imetit 100 nM

CCN(c1nc(N)c(C(=O)N=C(N)N)nc1Cl)C(C)C [EIPA, 5-(N-ethyl-N-isopropyl)amiloride]
inhibition of NHE activity (Na+/H+ exchanger (NHE); EIPA 10 uM): 50%
mean rate of Na+-dependent intracellular alkalinization (NHE activity) (Na+/H+ exchanger (NHE); EIPA 10 uM, control 0.074): 0.031 pHi units/min

N=C(N)SCCc1cnc[nH]1 [imetit, Imetit]
inhibition of NHE activity (Na+/H+ exchanger (NHE); imetit 100 nM): 35%
rate of intracellular alkalinization, representative single cell (Na+/H+ exchanger (NHE); imetit 100 nM, cell of FIG. 1B, control cell 0.094): 0.050 pHi units/min
final pHi after re-introduction of Na+ (Na+/H+ exchanger (NHE); imetit 100 nM, n=277 cells): 6.61±0.01
initial pHi (Na+/H+ exchanger (NHE); imetit-treated cells, n=277): 6.74±0.01
pHi right before Na+ was reintroduced (0 Na pHi) (Na+/H+ exchanger (NHE); imetit-treated cells, n=277): 6.26±0.01
cells with rates lower than the mean control rate of 0.074 pHi units/min (Na+/H+ exchanger (NHE); imetit-treated, 277 cells): 77%
concentration-response curve for K+-induced exocytosis of endogenous NE [1]: significantly shifted downwards
concentration-response curve for K+-induced exocytosis of [3H]NE (SH-SY5Y-H3 cells [2]): significantly shifted downwards
K+-elicited Cai transients (SH-SY5Y cells [3]): fails to affect Cai transients
effect on peak Cai concentration elicited by 100 mM K+ (SH-SY5Y cells [3]): failed to affect peak Cai concentration
K+-elicited Ca2+ transients (SH-SY5Y-H3 cells [4]): markedly depressed
decrease in peak Cai concentration elicited by 100 mM K+ (SH-SY5Y-H3 cells [4]): 55%
EC50 (H3R): 2 nM

S=C(NC1CCCCC1)N1CCC(c2c[nH]cn2)CC1 [thioperamide, Thioperamide]
effect on NHE activity (Na+/H+ exchanger (NHE); thioperamide 300 nM alone): did not significantly modify NHE activity
effect on imetit-induced NHE attenuation (Na+/H+ exchanger (NHE); [6]): abolished the imetit-induced NHE attenuation
effect on imetit-induced attenuation of endogenous NE exocytosis [1]: prevented
effect on imetit-induced attenuation of [3H]NE exocytosis (SH-SY5Y-H3 cells [2]): prevented
effect on imetit-induced depression of the rise in Cai concentration (SH-SY5Y-H3 cells [4]; [6]): completely prevented
effect on the imetit response of Ca2+ transients (SH-SY5Y-H3 cells [4]; [6]): prevented

ω-conotoxin GVIA [ω-CTX]
concentration-response curve for K+-induced exocytosis of endogenous NE [1]: shifted markedly downwards
concentration-response curve for K+-induced exocytosis of [3H]NE (SH-SY5Y cells [5]): shifted markedly downwards
concentration-response curve for K+-induced exocytosis of [3H]NE (SH-SY5Y-H3 cells [2]): shifted markedly downwards
increase in peak Cai concentration on K+ depolarization (SH-SY5Y cells [3]): markedly attenuated
increase in peak Cai concentration on K+ depolarization (SH-SY5Y-H3 cells [4]): markedly attenuated
